Data on twelve compounds can be found in patent publication US20120122860A1, “SOLID FORMS OF SULFONAMIDES AND AMINO ACIDS” (Plexxikon, Inc., priority 2009, published 2012).

Molecules are shown by their SMILES.

The nature of series [1]: Dog PK study of solid forms and formulations. The series is classed as in vivo, Beagle dogs. Here is the method: Pharmacokinetic properties of various compositions prepared from the complexes may be assessed in male Sprague Dawley rats or male Beagle dogs, and compared to the properties of the free base compound. Rats are dosed daily with compound either by IV injections via surgically implanted jugular catheters or by oral gavage (PO). Each compound is prepared as a 20 mg/mL stock solution in dimethyl sulfoxide, which is further diluted to provide the dosing stock at the desired concentration for the IV or PO formulations. For IV dosing, the dosing stock is diluted into a 1:1:8 mixture of Solutol®:ethanol:water. For PO dosing, the dosing stock is diluted into 1% methylcellulose. In a cassette format, 5 compounds are diluted to 0.5 mg/mL each for IV dosing and 0.4 mg/mL each for PO dosing and dosed at 1 mg/kg (2 mL/kg) or 2 mg/kg (5 mL/kg), respectively. For IV dosed animals, tail vein blood samples are collected with lithium heparin anticoagulant at 5, 15, 30, and 60 minutes and 4, 8, and 24 hours post dosing each day. For PO dosed animals, tail vein blood samples are collected with lithium heparin anticoagulant at 30 minutes, 1, 2, 4, 8 and 24 hours post dosing each day. Dogs are dosed daily by oral capsules in a suitable formulation at 50 mg/mL. Cephalic vein blood samples are collected with lithium heparin anticoagulant at 30 minutes, 1, 2, 4, 8 and 24 hours post dosing each day. All samples are processed to plasma and frozen for later analysis of each compound by LC/MS/MS. Plasma levels as a function of time are plotted to assess the AUC (ng*hr/mL).
The arginine complex of N-[3-(5-chloro-1H-pyrrolo[2,3-b]pyridine-3-carbonyl)-2,4-difluoro-phenyl]-4-trifluoromethyl-benzenesulfonamide P-1021 was analyzed in a number of dog PK studies following the above or similar protocols. These were done primarily at Bridge Laboratories, Beijing, China, with one study done at Seventh Wave Laboratories LLC, Chesterfield, Mo. Plasma samples were analyzed to determine the plasma concentration (PPD Development, Madison, Wis.) at each time point from which the Cmax and AUC∞ were determined. In some instances, the materials are combined in the solvents indicated, and the solvent is removed by evaporation, or by spray drying where indicated. In these tables, unless indicated otherwise, the dose is mg/dog, and the Cmax/dose ((ng/mL)/(mg/kg)) and the AUC∞/dose ((ng*hr/mL)/(mg/kg)) are calculated assuming a 10 kg weight for the dogs.
This study was done at Seventh Wave, containers were provided with 13.259 g, 39.776 g or 66.301 g of this formulation and suspended in 360 mL of 1.5% Polysorbate 20 vehicle and dosed by oral gavage.
N-[3-(5-chloro-1H-pyrrolo[2,3-b]pyridine-3-carbonyl)-2,4-difluoro-phenyl]-4-trifluoromethyl-benzenesulfonamide P-1021 was analyzed in a dog PK study wherein the arginine complex of N-[3-(5-cyano-1H-pyrrolo[2,3-b]pyridine-3-carbonyl)-2,4-difluoro-phenyl]-4-trifluoromethyl-benzenesulfonamide P-1092 was also assessed.

The target of the next series is B-Raf V600E (Homo sapiens, UniProt P15056, V600E). In words: Kinase activity assay, B-Raf V600E. It is filed as biochemical. The settings on record: read-out: activity toward kinase B-Raf V600E, IC50.
Chain of B-Raf V600E (P15056 whole entry V600E): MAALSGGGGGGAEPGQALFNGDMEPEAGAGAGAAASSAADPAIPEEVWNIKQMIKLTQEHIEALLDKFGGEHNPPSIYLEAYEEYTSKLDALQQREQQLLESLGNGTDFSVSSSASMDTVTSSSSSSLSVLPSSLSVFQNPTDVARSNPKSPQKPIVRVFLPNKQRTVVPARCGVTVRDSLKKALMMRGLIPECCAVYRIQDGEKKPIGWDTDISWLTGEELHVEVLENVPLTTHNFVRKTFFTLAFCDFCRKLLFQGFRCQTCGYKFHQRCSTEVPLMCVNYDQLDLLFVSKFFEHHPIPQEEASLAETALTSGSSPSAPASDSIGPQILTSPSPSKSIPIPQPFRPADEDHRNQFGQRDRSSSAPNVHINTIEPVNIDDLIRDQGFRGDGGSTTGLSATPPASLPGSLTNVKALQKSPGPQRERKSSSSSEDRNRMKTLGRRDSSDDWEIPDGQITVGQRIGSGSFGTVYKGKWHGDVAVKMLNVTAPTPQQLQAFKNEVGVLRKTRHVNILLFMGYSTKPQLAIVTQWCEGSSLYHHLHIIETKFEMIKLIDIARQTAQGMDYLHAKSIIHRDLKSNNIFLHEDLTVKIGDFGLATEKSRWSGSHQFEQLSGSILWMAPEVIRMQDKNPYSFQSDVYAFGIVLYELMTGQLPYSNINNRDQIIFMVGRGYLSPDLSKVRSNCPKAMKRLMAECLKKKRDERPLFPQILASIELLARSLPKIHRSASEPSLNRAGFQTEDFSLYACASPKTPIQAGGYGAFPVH
The target of the next series is Flt1 (Homo sapiens, UniProt P17948). In words: Kinase activity assay, Flt1.
Chain of Flt1 (P17948 27-1338): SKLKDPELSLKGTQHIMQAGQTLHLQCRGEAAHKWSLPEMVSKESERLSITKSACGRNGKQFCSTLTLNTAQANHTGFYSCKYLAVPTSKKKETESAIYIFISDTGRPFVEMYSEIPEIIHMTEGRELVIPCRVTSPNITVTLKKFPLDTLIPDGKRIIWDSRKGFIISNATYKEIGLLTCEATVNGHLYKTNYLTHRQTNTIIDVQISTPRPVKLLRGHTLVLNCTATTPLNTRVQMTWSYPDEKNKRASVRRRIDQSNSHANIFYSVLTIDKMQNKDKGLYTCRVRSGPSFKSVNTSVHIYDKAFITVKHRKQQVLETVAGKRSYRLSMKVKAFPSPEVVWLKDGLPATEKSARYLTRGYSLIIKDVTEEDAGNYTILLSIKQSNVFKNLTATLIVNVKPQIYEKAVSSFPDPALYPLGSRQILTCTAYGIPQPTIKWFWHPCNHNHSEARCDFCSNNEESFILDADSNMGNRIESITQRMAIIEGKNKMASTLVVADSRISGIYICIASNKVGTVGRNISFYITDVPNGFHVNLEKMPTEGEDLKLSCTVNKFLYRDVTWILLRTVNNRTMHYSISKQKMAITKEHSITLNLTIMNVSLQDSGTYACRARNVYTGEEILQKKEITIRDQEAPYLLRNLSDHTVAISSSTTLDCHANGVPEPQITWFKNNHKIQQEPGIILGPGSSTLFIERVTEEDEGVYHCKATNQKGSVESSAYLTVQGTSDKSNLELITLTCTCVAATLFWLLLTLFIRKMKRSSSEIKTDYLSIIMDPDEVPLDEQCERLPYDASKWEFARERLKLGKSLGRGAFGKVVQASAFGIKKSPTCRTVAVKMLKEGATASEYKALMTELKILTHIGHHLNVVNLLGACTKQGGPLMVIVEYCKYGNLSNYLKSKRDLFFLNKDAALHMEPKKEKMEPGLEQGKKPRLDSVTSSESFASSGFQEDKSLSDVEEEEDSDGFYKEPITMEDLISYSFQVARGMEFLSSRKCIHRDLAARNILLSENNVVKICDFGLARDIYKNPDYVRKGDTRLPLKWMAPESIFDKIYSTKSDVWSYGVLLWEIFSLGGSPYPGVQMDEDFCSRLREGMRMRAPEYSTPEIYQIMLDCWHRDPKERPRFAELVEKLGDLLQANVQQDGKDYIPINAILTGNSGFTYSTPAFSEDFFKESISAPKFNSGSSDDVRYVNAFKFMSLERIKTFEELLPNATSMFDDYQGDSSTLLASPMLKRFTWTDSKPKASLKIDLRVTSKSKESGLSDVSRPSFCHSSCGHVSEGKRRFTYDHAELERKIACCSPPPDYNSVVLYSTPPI
The next series deals with Src (Homo sapiens, UniProt P12931). In words: Kinase activity assay, Src.
Chain of Src (P12931 whole entry): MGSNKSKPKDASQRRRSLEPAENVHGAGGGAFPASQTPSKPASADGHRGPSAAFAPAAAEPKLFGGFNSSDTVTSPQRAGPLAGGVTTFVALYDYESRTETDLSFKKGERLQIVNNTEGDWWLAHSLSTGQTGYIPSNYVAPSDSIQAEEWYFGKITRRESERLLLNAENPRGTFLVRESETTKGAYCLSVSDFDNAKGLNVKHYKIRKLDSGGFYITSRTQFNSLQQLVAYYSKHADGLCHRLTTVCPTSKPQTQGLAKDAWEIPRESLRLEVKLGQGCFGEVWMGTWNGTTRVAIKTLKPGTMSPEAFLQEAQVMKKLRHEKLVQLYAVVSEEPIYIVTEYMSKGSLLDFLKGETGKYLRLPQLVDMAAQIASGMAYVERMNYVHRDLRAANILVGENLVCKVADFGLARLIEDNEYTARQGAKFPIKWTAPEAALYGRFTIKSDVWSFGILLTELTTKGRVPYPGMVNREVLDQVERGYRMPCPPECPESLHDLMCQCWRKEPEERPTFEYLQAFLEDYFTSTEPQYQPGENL
The next series addresses Kdr (Homo sapiens, UniProt P35968). The series can be described thus: Kinase activity assay, Kdr.
A further series deals with C-Raf (Homo sapiens, UniProt P04049). In words: Kinase activity assay, C-Raf.
Chain of C-Raf (P04049 whole entry): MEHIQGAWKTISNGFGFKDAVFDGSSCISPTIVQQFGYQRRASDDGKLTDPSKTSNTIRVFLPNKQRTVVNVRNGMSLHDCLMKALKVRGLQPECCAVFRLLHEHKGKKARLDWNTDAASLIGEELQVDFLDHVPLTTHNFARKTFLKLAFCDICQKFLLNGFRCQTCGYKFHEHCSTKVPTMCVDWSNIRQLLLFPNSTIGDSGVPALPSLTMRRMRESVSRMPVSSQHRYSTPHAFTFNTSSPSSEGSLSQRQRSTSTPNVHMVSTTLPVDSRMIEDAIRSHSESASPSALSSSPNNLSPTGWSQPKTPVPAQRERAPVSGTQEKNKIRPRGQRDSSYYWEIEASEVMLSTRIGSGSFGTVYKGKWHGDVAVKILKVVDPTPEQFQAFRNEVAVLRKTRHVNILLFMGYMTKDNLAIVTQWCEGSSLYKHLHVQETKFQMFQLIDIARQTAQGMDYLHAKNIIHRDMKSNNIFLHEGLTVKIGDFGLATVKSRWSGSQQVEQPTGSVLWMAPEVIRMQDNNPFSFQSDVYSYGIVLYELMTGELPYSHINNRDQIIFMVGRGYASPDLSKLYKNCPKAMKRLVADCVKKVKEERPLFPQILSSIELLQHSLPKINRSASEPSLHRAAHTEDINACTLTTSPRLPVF
For a further series, the target named is B-Raf (Homo sapiens, UniProt P15056). The series can be described thus: Kinase activity assay, B-Raf. It is filed as biochemical. The note with it: read-out: activity toward kinase B-Raf, IC50.
Chain of B-Raf (P15056 whole entry): as the sequence (P15056 whole entry V600E) above, with E600V counted along it
The next series deals with Kit (Homo sapiens, UniProt P10721). In words: Kinase activity assay, Kit.
The target in the next series is Fms (Homo sapiens, UniProt P07333). In words: Kinase activity assay, Fms.
The mark [2] stands for this setting: Table 5B, forms of P-1021, dog, dose 150 mg/dog, 10 kg weight assumed.
[3] abbreviates: Table 7B, P-1021 arginine complex, dog, dose 200 mg/dog, 10 kg weight assumed.
[4] abbreviates: Table 7B, P-1021 arginine complex, dog, dose 400 mg/dog, 10 kg weight assumed.
The mark [5] stands for this setting: Table 8B, P-1021 arginine complex, dog, oral gavage, dose 249 mg/kg.
Setting [6] is: Table 8B, P-1021 arginine complex, dog, oral gavage, dose 795 mg/kg.
The mark [7] stands for this setting: Table 8B, P-1021 arginine complex, dog, oral gavage, dose 965 mg/kg.
[8] abbreviates: test articles are solid forms of P-1021, dog, oral, 100 mg/dog, calculated assuming a 10 kg weight.
Setting [9] is: Table 9B, dog, dose 200 mg/dog, 10 kg weight assumed.
Where [10] appears, read: Table 9B, dog, dose 400 mg/dog, 10 kg weight assumed.

Chain of Kdr (P35968 20-1356): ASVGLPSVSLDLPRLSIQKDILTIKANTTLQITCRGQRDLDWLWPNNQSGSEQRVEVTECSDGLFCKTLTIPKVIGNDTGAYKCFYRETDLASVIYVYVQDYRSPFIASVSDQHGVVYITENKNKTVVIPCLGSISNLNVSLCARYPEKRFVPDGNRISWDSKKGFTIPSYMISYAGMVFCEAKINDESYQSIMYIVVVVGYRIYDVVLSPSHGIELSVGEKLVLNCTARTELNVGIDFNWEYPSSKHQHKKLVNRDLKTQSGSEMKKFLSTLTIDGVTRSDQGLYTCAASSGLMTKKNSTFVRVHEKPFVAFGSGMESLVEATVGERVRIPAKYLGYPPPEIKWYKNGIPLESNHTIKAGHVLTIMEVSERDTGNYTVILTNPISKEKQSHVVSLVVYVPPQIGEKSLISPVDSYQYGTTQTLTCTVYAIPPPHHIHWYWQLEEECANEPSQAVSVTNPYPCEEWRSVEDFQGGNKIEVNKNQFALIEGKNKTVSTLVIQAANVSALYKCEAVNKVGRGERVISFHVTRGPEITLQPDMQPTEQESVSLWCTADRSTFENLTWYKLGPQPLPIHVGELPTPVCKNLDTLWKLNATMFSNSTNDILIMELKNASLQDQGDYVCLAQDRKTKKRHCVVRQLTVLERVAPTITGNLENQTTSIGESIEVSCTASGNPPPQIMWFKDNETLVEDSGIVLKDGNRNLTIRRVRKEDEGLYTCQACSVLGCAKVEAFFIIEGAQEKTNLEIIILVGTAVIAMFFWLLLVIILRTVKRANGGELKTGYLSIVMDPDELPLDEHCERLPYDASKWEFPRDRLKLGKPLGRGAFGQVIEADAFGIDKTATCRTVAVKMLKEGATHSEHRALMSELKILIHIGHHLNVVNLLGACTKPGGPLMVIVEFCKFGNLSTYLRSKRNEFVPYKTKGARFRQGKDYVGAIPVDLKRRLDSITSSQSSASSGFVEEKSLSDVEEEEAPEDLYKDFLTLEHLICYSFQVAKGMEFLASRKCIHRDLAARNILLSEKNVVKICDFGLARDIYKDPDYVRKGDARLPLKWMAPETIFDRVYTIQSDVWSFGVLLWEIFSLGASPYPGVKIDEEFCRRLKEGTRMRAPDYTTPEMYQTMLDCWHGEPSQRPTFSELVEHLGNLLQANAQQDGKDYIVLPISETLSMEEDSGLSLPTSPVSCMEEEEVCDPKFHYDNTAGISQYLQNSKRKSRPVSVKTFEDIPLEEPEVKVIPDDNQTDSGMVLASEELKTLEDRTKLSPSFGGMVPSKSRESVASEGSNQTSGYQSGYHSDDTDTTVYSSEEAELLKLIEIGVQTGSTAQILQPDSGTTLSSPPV

Regarding `O=C(c1c(F)ccc(NS(=O)(=O)c2ccc(C(F)(F)F)cc2)c1F)c1c[nH]c2ncc(Cl)cc12` [P-1021 arginine complex, N-[3-(5-chloro-1H-pyrrolo[2,3-b]pyridine-3-carbonyl)-2,4-difluoro-phenyl]-4-trifluoromethyl-benzenesulfonamide], the AUC/dose entry in [1] (P-1021 arginine complex dosed at 400 mg per dog (Table 6B, Table 7B), typical value) was “greater than 12,000 (ng*hr/mL)/(mg/kg)”. Moreover, the “AUC∞/dose” value was 34,693 (ng*hr/mL)/(mg/kg) in series [1] (setting [2]); 22,480 (ng*hr/mL)/(mg/kg) in series [1] (setting [3]); 12,120 (ng*hr/mL)/(mg/kg) in series [1] (setting [4]); 11,247 (ng*hr/mL)/(mg/kg) in series [1] (setting [5]); 7,457 (ng*hr/mL)/(mg/kg) in [1] (setting [6]); 3,883 (ng*hr/mL)/(mg/kg) in series [1] (setting [7]). In [1] (setting [8]), the “AUC∞/dose” value is reported as 16,850 (ng*hr/mL)/(mg/kg). In addition, the Cmax/dose in series [1] (setting [2]) is recorded as 810 (ng/mL)/(mg/kg); in [1] (setting [3]), 960 (ng/mL)/(mg/kg); in series [1] (setting [4]) it was 455 (ng/mL)/(mg/kg); in series [1] (setting [5]), 208 (ng/mL)/(mg/kg); in series [1] (setting [6]), 107 (ng/mL)/(mg/kg); in series [1] (setting [7]) it was 178 (ng/mL)/(mg/kg). Besides, the Cmax/dose in series [1] (setting [8]) is given as 830.5 (ng/mL)/(mg/kg).

`O=C(c1c(F)ccc(NS(=O)(=O)c2ccc(C(F)(F)F)cc2)c1F)c1c[nH]c2ncc(Cl)cc12` [P-1021, N-[3-(5-chloro-1H-pyrrolo[2,3-b]pyridine-3-carbonyl)-2,4-difluoro-phenyl]-4-trifluoromethyl-benzenesulfonamide]: in series [1] (dog PK studies, arginine complex), the “Cmax and AUC / exposure, comparison in words” value was “favorable Cmax and AUC compared to free base and other formulations”.

For `N#Cc1cnc2[nH]cc(C(=O)c3c(F)ccc(NS(=O)(=O)c4ccc(C(F)(F)F)cc4)c3F)c2c1` [P-1092 arginine complex, N-[3-(5-cyano-1H-pyrrolo[2,3-b]pyridine-3-carbonyl)-2,4-difluoro-phenyl]-4-trifluoromethyl-benzenesulfonamide], the “AUC∞/dose” value is 11,720 (ng*hr/mL)/(mg/kg) in [1] (setting [9]) and 12,580 (ng*hr/mL)/(mg/kg) in [1] (setting [10]). The Cmax/dose in series [1] (setting [9]) was 550 (ng/mL)/(mg/kg); in series [1] (setting [10]) it was 617.5 (ng/mL)/(mg/kg).

In general, IC50 refers to the concentration needed to halve the response being measured. Turning to `CCCS(=O)(=O)Nc1ccc(F)c(C(O)c2c[nH]c3ncc(-c4ccc(C(=O)NCC)nc4)cc23)c1F` (stereo not shown) [P-2150, 5-(3-{[2,6-Difluoro-3-(propane-1-sulfonylamino)-phenyl]-hydroxy-methyl}-1H-pyrrolo[2,3-b]pyridin-5-yl)-pyridine-2-carboxylic acid ethylamide], the IC50 on B-Raf V600E, against Flt1, at Src, on Kdr, on C-Raf and at B-Raf was no more than 10 µM in each case.

For the compound `CCCS(=O)(=O)Nc1ccc(F)c(C(=O)c2c[nH]c3ncc(-c4cncnc4)cc23)c1F` [P-2162, Propane-1-sulfonic acid [2,4-difluoro-3-(5-pyrimidin-5-yl-1H-pyrrolo[2,3-b]pyridine-3-carbonyl)-phenyl]-amide], the IC50 on B-Raf V600E, at Flt1, against Src, against Kdr, on C-Raf and at B-Raf was no more than 10 µM each time.

On to `CCCS(=O)(=O)Nc1ccc(F)c(C(=O)c2c[nH]c3ncc(C(=O)NC)cc23)c1F` [P-2200, 3-[2,6-Difluoro-3-(propane-1-sulfonylamino)-benzoyl]-1H-pyrrolo[2,3-b]pyridine-5-carboxylic acid methylamide], for which the IC50 against Kit, on B-Raf V600E, on Fms, at Flt1, against Kdr and at C-Raf was no more than 10 µM each time. On B-Raf, the IC50 was no more than 10 µM.

For the compound `CCCS(=O)(=O)Nc1ccc(F)c(C(=O)c2c[nH]c3ncc(C(=O)NC4CC4)cc23)c1F` [P-2201, 3-[2,6-Difluoro-3-(propane-1-sulfonylamino)-benzoyl]-1H-pyrrolo[2,3-b]pyridine-5-carboxylic acid cyclopropylamide], the 50% inhibitory concentration (IC50) against Kit, on B-Raf V600E, on Fms, against Flt1, at Kdr and at C-Raf was no more than 10 µM in each case. The IC50 at B-Raf is no more than 10 µM.

As to `CCCS(=O)(=O)Nc1ccc(F)c(C(=O)c2c[nH]c3ncc(-c4cnc(OCCCN(C)C)nc4)cc23)c1F` [P-2203, Propane-1-sulfonic acid (3-{5-[2-(3-dimethylamino-propoxy)-pyrimidin-5-yl]-1H-pyrrolo[2,3-b]pyridine-3-carbonyl}-2,4-difluoro-phenyl)-amide], the half-maximal inhibitory concentration (IC50) against Kit, on B-Raf V600E, against Fms, on Flt1, at Kdr and at B-Raf was no more than 10 µM in each case.

For `CCCS(=O)(=O)Nc1ccc(F)c(C(=O)c2c[nH]c3ncc(C(=O)NCCO)cc23)c1F` [P-2217, 3-[2,6-Difluoro-3-(propane-1-sulfonylamino)-benzoyl]-1H-pyrrolo[2,3-b]pyridine-5-carboxylic acid (2-hydroxy-ethyl)-amide], the IC50 at B-Raf V600E, at Flt1, against Src, on Kdr, at C-Raf and on B-Raf was no more than 10 µM throughout.

In the case of `CCCS(=O)(=O)Nc1ccc(F)c(C(=O)c2c[nH]c3ncc(-c4ccc(S(=O)(=O)CC)cc4)cc23)c1F` [P-2218, Propane-1-sulfonic acid {3-[5-(4-ethanesulfonyl-phenyl)-1H-pyrrolo[2,3-b]pyridine-3-carbonyl]-2,4-difluoro-phenyl}-amide], the IC50 against Kit, at B-Raf V600E, against Fms, at Flt1, against Kdr and at C-Raf was no more than 10 µM throughout. Moreover, the IC50 at B-Raf was no more than 10 µM.

For `CCCS(=O)(=O)Nc1cccc(C(=O)c2c[nH]c3ncc(C(=O)OC)cc23)c1F` [P-2404, 3-[2-Fluoro-3-(propane-1-sulfonylamino)-benzoyl]-1H-pyrrolo[2,3-b]pyridine-5-carboxylic acid methyl ester], the IC50 at B-Raf V600E, at Fms, against Flt1, at Kdr, against C-Raf and at B-Raf was no more than 10 µM in each case.

In the case of `O=C(c1c(F)ccc(NS(=O)(=O)c2ccc(C(F)(F)F)cc2)c1F)c1c[nH]c2ncc(Cl)cc12` [Sulfate, N-[3-(5-chloro-1H-pyrrolo[2,3-b]pyridine-3-carbonyl)-2,4-difluoro-phenyl]-4-trifluoromethyl-benzenesulfonamide], in [1] (setting [8]), the “AUC∞/dose” value is given as 5,067 (ng*hr/mL)/(mg/kg) and the Cmax/dose is recorded as 181.5 (ng/mL)/(mg/kg).
